Measurements published in patent EP0531640B1, “Antibiotic LL-E19020 Gamma” (F. HOFFMANN-LA ROCHE AG, priority 1991, dated 1993).
≈ marks a conversion by molar mass, not a printed value.

Key:
[1] = system: non-enterococcal streptococci; experiment: MIC by agar dilution, summary for non-enterococcal streptococci; type: cell-based; conditions: 18 h; text summary: relatively good activity against non-enterococcal streptococci
Description: The in vitro antibacterial activity of LL-E19020 Gamma is determined against a spectrum of gram positive and gram negative bacteria by a standard agar dilution method. Mueller-Hinton agar containing 5% sheep blood and two-fold decreasing concentrations of LL-E19020 Gamma is poured into petri dishes. The agar surfaces are inoculated with 1 to 5X10^4 colony forming units of bacteria by means of the Steers replicating device. The lowest concentration of antibiotic that inhibits growth of a bacterial strain after 18 hours incubation is recorded as the minimal inhibitory concentration for that strain.
• 1. Serial two-flow dilutions of drug are prepared in Mueller-Hinton broth in a range of 2560 µg/ml-0.15 µg/ml plus a solvent control. • 2. Two milliliters of drug dilution (10X) are added to sterile screw cap bottles to which 18 ml of Mueller-Hinton agar containing 5.6% defibrinated sheep blood is added. Final drug concentration ranges 256 µg/ml-0.015 µg/ml in agar containing 5% sheep blood. • 3. A few isolated colonies of each test organism are inoculated into 5 ml trypticase soy broth or brain heart infusion broth. The cultures are shaken at 35 °C. for 5 hours. • 4. Each culture is diluted 1:50 (10^-1.7) in Mueller-Hinton broth and applied to agar plates using a Steers replicator. Control plates should be seeded last to ensure that viable organisms are present throughout the procedure. […]

[2] = system: Staphylococcus aureus Smith; experiment: In vivo antibacterial activity, acute lethal infection in mice; conditions: for Survival Ratio 7 Days After Infection With S. aureus Smith: mice, 30 minutes after infection
Description: (§1) The in vivo antibacterial activity of antibiotic LL-E19020 Gamma is established by infecting female CD-1 mice from Charles River Laboratories, weighing 20±2 g each, intraperitoneally with either 2.0 X 10^2 CFU/0.5 ml Streptococcus pyogenes C203 suspended in broth or 2.8 X 10^6 CFU/0.5 ml Straphylococcus aureus Smith suspended in 5% hog gastric mucin. The mice were treated subcutaneously, 30 minutes after infection with the indicated dose of the test compound in 0.5 ml of 0.2% aqueous agar. Toxicity studies were performed administering the same treatment to uninfected mice.

[3] = system: Streptococcus pyogenes C203; experiment: as above; conditions: for Survival Ratio 7 Days After Infection With S. pyogenes C203: mice, 30 minutes after infection
Description: as §1

[4] = In vivo toxicity in uninfected mice; conditions: for In Vivo Toxicity: Survival Ratio 7 Days After Administration Of Single Subcutaneous Dose: uninfected mice
Description: as §1

[5] = Growth of chickens and efficiency of feed utilization; type: in vivo, Peterson X Arbor Acres chicks; conditions: 25 ppm in the diet
Description: In this test, one day old Peterson X Arbor Acres chicks are sorted into equal weight groups of 5 males and 5 females per cage. Cages are randomized to treatment groups with six replicates per treatment. The test compound is evaluated 25 ppm in the diet against chicks receiving a non-medicated diet and a diet containing 200 ppm of penicillin as a positive control.
The cages are weighed at day 1 and at day 14 and feed consumption is measured on weigh days. Feed and water are offered ad libitum and lighting and supplemental heat are provided continuously.
The poultry diet employed in the test is as follows:
The vitamin-amino acid premix in the above feed composition is prepared from the following formulation. The expressions of quantity relate to units per kilogram of the finished feed composition.

[6] = Single Subcutaneous Dose 0.5 MG/KG
[7] = Single Subcutaneous Dose 1 MG/KG
[8] = Single Subcutaneous Dose 2 MG/KG
[9] = Single Subcutaneous Dose 4 MG/KG
[10] = Single Subcutaneous Dose 8 MG/KG
[11] = Single Subcutaneous Dose 16 MG/KG

## C/C=C\C=C\C1OC(O)(C(COC2CC(OC)C(OC3CC(OC)C(OC4CC(OC)C(O)C(C)O4)C(C)O3)C(C)O2)C(=O)NC/C=C/C=C(\C)C(OC)C(C)C2CC(O)C(/C=C/C=C/C=C/C(=O)O)O2)C(OC(=O)Cc2ccc(O)cc2)C(O)C1(C)C (centres unmarked) [LL-E19020 Gamma]
[1]
  MIC: 0.12 to 16 µg/mL (≈ 0.0966 to 12.9 µM)
[2]; [6]
  Survival Ratio 7 Days After Infection With S. aureus Smith: 0/5
[2]; [7]
  Survival Ratio 7 Days After Infection With S. aureus Smith: 0/5
[2]; [8]
  Survival Ratio 7 Days After Infection With S. aureus Smith: 0/5
[2]; [9]
  Survival Ratio 7 Days After Infection With S. aureus Smith: 0/5
[2]; [10]
  Survival Ratio 7 Days After Infection With S. aureus Smith: 0/5
[2]; [11]
  Survival Ratio 7 Days After Infection With S. aureus Smith: 0/5
[2]; Single Subcutaneous Dose 32 MG/KG
  Survival Ratio 7 Days After Infection With S. aureus Smith: 0/5
[2]; Single Subcutaneous Dose 64 MG/KG
  Survival Ratio 7 Days After Infection With S. aureus Smith: 0/5
[2]; sc, acute lethal infection in mice, Staphylococcus aureus Smith, single subcutaneous dose, read-out: approximate ED50
  ED50: > 64 mg/kg
[3]; [6]
  Survival Ratio 7 Days After Infection With S. pyogenes C203: 0/5
[3]; [7]
  Survival Ratio 7 Days After Infection With S. pyogenes C203: 0/5
[3]; [8]
  Survival Ratio 7 Days After Infection With S. pyogenes C203: 0/5
[3]; [9]
  Survival Ratio 7 Days After Infection With S. pyogenes C203: 1/5
[3]; [10]
  Survival Ratio 7 Days After Infection With S. pyogenes C203: 3/5
[3]; [11]
  Survival Ratio 7 Days After Infection With S. pyogenes C203: 4/5
[3]; sc, acute lethal infection in mice, Streptococcus pyogenes C203, single subcutaneous dose, read-out: approximate ED50
  ED50: 4 to 8 mg/kg
[4]; dosed subcutaneously at the same levels used in the protection study (0.5-64 mg/kg)
  toxic symptoms: did not exhibit toxic symptoms
[4]; 0.5 MG/KG
  In Vivo Toxicity: Survival Ratio 7 Days After Administration Of Single Subcutaneous Dose: 2/2
[4]; 1 MG/KG
  In Vivo Toxicity: Survival Ratio 7 Days After Administration Of Single Subcutaneous Dose: 2/2
[4]; 2 MG/KG
  In Vivo Toxicity: Survival Ratio 7 Days After Administration Of Single Subcutaneous Dose: 2/2
[4]; 4 MG/KG
  In Vivo Toxicity: Survival Ratio 7 Days After Administration Of Single Subcutaneous Dose: 2/2
[4]; 8 MG/KG
  In Vivo Toxicity: Survival Ratio 7 Days After Administration Of Single Subcutaneous Dose: 2/2
[4]; 16 MG/KG
  In Vivo Toxicity: Survival Ratio 7 Days After Administration Of Single Subcutaneous Dose: 2/2
[4]; 32 MG/KG
  In Vivo Toxicity: Survival Ratio 7 Days After Administration Of Single Subcutaneous Dose: 2/2
[4]; 64 MG/KG
  In Vivo Toxicity: Survival Ratio 7 Days After Administration Of Single Subcutaneous Dose: 2/2
[5]; chicks, day 1 to day 14
  Weight Gain: 342 g
  Weight Gain, % improvement over control: 6.5%
  feed conversion: 1.297
  feed conversion, % improvement over control: 1.9%
[5]; over unmedicated controls
  efficiency of feed utilization, result in words: increased the efficiency of feed utilization
  weight gain of chicks, result in words: improved weight gain of chicks
